Data on 90 molecules can be found in a melting point compilation (Tetko et al.; mined from patent text by program, amines drawn as free bases though some values may be those of a salt).

The structures appear in SMILES notation.

For the molecule `CCCCCCCCCCOc1ccc(-c2nc(-c3c(Cl)cccc3Cl)nn2C)cc1`, the melting point (commonly the temperature, or range, at which the solid turns liquid) was in the range of 60 to 64 °C.
The molecule `O=C1COc2cc3c(cc21)C1(CO3)C(=O)N(CC2CCCO2)c2ccccc21` (stereo not given) returned a melting point of 142 to 144 °C.
Regarding `C=CCn1cc(Cn2ccnc2)c2cc(O)ccc21`, the melting point lay within 165 to 167 °C.
Turning to `O=C(Nc1ccccn1)c1cc2ccnc(Cl)c2[nH]1`, the melting point is 94 to 102 °C.
The value for `CC(=O)Nc1ccc(OCCCCBr)c([N+](=O)[O-])c1` was 192 to 194 °C; that for `CCCCCCNC(=O)Oc1cccc(NC(=O)CC(C)(OC)OC)c1` was 110 °C; that for `CCC(NC(=O)c1c(NC(C)=O)c(NC(C)=O)cc2c1OCCO2)N1CCCCC1` (stereo not given) was above 260 °C.
For the molecule `CCOC(=O)c1ccc2c(=O)n3cc(C(=O)O)ccc3nc2c1`, the melting point lay in the range of 275 to 324 °C.
In turn, `CC(=O)N1[C@@H](c2ccc(F)cc2)SC(C)(C)[C@@H]1C(=O)O` returned a melting point of 144 to 146 °C.
Turning to `CCCc1ccc(C=NN=Cc2ccc(F)c(F)c2)cc1`, the melting point worked out at 50 °C.
Regarding `O=C(NCCCNS(=O)(=O)c1ccc(Oc2ccccc2)cc1)P(=O)(O)O`, the melting point lay in the range of 165 to 168 °C.
Consider `CC(=O)n1nc(C(=O)NC2CN(C)CCN(Cc3ccccc3)C2)c2ccccc21` (stereo not given), for which the melting point is 166 to 168 °C.
In the case of `CC1CC(=O)N(C)N=C1c1ccc2c(c1)OCC(=O)N2` (stereo not given), the melting point lay in the range of 204 to 206 °C.
With `Cc1nc2c(c(-c3cccc([N+](=O)[O-])c3)c1C(=O)OCCO)C(=O)OC2`, the melting point turned out to be 130 °C.
For `CCOC(=O)c1ncn2c1[C@@H]1CCCN1C(=O)c1c(Br)cccc1-2` the value was 191 to 192 °C; for `CCn1ncc2c(NCC3CCCCC3)c3cc(C(=O)O)ccc3nc21`, 240 °C; for `COc1ccc(S(=O)(=O)C2(C(=O)O)CCN(Cc3ccc(Cl)c(Cl)c3)CC2)cc1`, 192 to 195 °C.
The value for `Cc1cc(NC(=O)c2cnn(-c3ccc(C(F)(F)F)cc3)c2C)ccc1N1CCC(N2CCOCC2)CC1` was 252 to 255 °C; that for `CC(O)CN1CCN(c2cccc3c2OCCO3)CC1` (stereo not given) was 92 °C; that for `CC(C)(C)C(=O)c1ccc(C(=O)NC(=O)c2ccccc2)cc1` was 121 to 123 °C.
The molecule `C#CCCCCCCOC(c1ccccc1)(c1ccccc1)c1ccccc1` returned a melting point of 43 to 45 °C.
Take `CC(C)(C)OC(=O)Nc1ccc(-c2cccc(F)c2F)cc1N`: the melting point came to 78 °C.
In the case of `Cc1nc2c(OCc3ccccc3)cccn2c1CC#N`, the melting point was in the range of 163 to 166 °C.
Regarding `Cc1ccsc1CN(O)C(N)=O`, the melting point was determined as 110 °C.
On to `CN(C)C1CCc2[nH]c3c(C(N)=O)cccc3c2C1` (stereo not given), for which the melting point lay within 252 to 254 °C.
For `Cc1cccc(C)c1N(CC(C)OS(C)(=O)=O)S(C)(=O)=O` (stereo not given), the melting point fell in the range of 111 to 114 °C.
Molecule `CNC(=O)C(Cc1ccc(OC)cc1)NC(=O)C(CC(C)C)C(S)CC(=O)N1CCN(C)CC1` (stereo not given) displayed a melting point of 65 to 68 °C.
For the molecule `O=S(=O)(Oc1ccc(C2(c3ccc(OS(=O)(=O)c4ccccc4)cc3)c3ccccc3-c3ccccc32)cc1)c1ccccc1`, the melting point lay within 225 to 226 °C.
For `Cn1c(=O)c(-c2ccccc2Cl)cc2cnc(N[C@H]3CC[C@H](NS(C)(=O)=O)CC3)nc21` the value was 261 °C.
Consider `CC(O)(COc1ccc(-c2ccc(Cl)cc2)cc1)CN1CCCC1` (stereo not given), for which the melting point lay in the range of 121 to 122 °C.
Turning to `Cc1ccccc1C(=O)Nc1ccc(C(=O)N2CCCC(O)(CO)c3ccccc32)cc1` (stereo not given), the melting point lay in the range of 136 to 140 °C.
For `N#Cc1ccc(-c2csc(-n3c(=O)oc4ccccc43)n2)cc1` the value was 244 to 245 °C; for `Fc1ccc2nc(S)oc2c1`, 248 to 250 °C.
For `Cc1ccc(S(=O)(=O)CCCC(=O)c2ccc(F)cc2)cc1`, the melting point lay within 114 to 116 °C.
For `COc1cccc2c(=O)c3c(O)cc(OCC(O)CCl)cc3oc12` (stereo not given) the value was 184 °C; for `CC(=O)Oc1cccc(C(=Cc2ccccc2)c2cccc(OC(C)=O)c2OC(C)=O)c1OC(C)=O`, 163 °C; for `CC(C)(C)OC(=O)NCCN1C(=O)c2ccccc2C1=O`, 143 to 145 °C.
Molecule `Cc1cccc2c(=O)c(CCCl)n[nH]c12` yielded a melting point of 222 to 225 °C.
As to `CC(C)(C)c1ccc(NC(=O)c2ccc(C3=NCCS3)cc2)cc1`, the melting point is 176 to 177 °C.
Molecule `CCC(C)c1ccc2ccccc2c1C(=O)O` (stereo not given) yielded a melting point of 168 to 170 °C.
In turn, `N#Cc1ccc2oc(-c3ccccc3)cc2c1` had a melting point of 138 to 141 °C.
Turning to `N#Cc1c(N2CCCCC2)cc(-c2ccccc2)c2c1-c1ccccc1C2`, the melting point is 156 °C.
`O=C(Cc1ccccc1)Nc1ccccc1`: the melting point lay in the range of 115 to 116 °C.
The value for `COc1ccc(Cc2oc3cccc(O)c3c2C)cc1` was 130 to 133 °C; that for `CCCC1C(=O)Oc2c(Oc3ccccc3Cl)cccc21` (stereo not given) was 51 to 53 °C; that for `Clc1cccc2c1C1(CO1)c1ccccc1C21CO1` (stereo not given) was 85 to 92 °C.
`CCN1CCCC1CNC(=O)c1cc(NS(C)(=O)=O)c(C)cc1OC` (stereo not given) displayed a melting point of 132 to 133 °C.
On to `CC1CN(C2=Nc3ccccc3Oc3ccccc32)CC(C)N1` (stereo not given), for which the melting point lay within 112 to 114 °C.
`CCOC(=O)Nc1ccc2c(c1)C(c1ccccc1Cl)SCCC(=O)N2` (stereo not given) yielded a melting point of 229 to 231 °C.
Consider `COC(=O)C1=C(C)N(CCCN2CCCCC2)c2cc[nH]c(=O)c2C1c1ccccc1C(F)(F)F` (stereo not given), for which the melting point lay in the range of 168 to 170 °C.
For `Cc1c(NC(=O)c2ccc(OC[C@@H]3CCCO3)cc2)ccc2cc(CNCC3CC3)cnc12`, the melting point is 156 to 158 °C.
For `Cc1cc(F)ccc1Nc1nc(N(C)c2ccccc2)c2cccc(OCCCN3CCOCC3)c2n1` the value was 133 to 134 °C.
The value for `COc1cc(C(=N)N)ccc1O` was above 240 °C; that for `COc1ccccc1OCCN(Cc1ccccc1)C(=O)CCc1c[nH]c2ccccc12` was 46.5 to 47.5 °C.
For the molecule `COc1ccccc1-c1cc(NC(=O)C2CCNCC2)ncn1`, the melting point lay within 279 to 280 °C.
The value for `Cc1c(NC(=O)c2ccc(-c3ccc(F)cc3)cc2)ccc2cc(C(O)c3ccccc3)cnc12` (stereo not given) was 182 to 186 °C.
`CCOC(=O)C(C(=O)C=CC(C)Oc1ccc(Oc2ccc(C(F)(F)F)cc2)cc1)C(=O)OCC` (stereo not given) yielded a melting point of 52 to 55 °C.
In the case of `N#CC(=Cc1ccc(O)c(O)c1)C(N)=S`, the melting point was determined as 213 °C.
For `CC(=O)SCC(C)C(=O)N(CC(=O)O)c1ccccc1` (stereo not given) the value was 94 to 94.5 °C; for `O=C(O)C(=O)c1ccc(OCCOc2ccc3ccccc3c2)cc1F`, 155 to 156 °C.
For `COC1CN(S(=O)(=O)c2ccc(Cl)c(C(=O)O)c2)CCC1O` (stereo not given), the melting point lay within 170 to 174 °C.
Molecule `CS(=O)(=O)c1ccc(-c2cnn(CC(=O)c3ccc(F)cc3F)c(=O)c2-c2ccc(F)cc2)cc1` had a melting point of 191 to 192 °C.
The molecule `CC(C)(C)c1cc(SCCC(=O)NC2C3CC4CC(C3)CC2C4)cc(C(C)(C)C)c1O` (stereo not given) returned a melting point of 156 °C.
For `O=C1CCN(Cc2ccc(O)cc2)CC1C1c2ccccc2C=Cc2ccccc21` (stereo not given) the value was 156 to 157 °C.
In turn, `Cc1cccc2cccc(O)c12` had a melting point of 56 to 59 °C.
Molecule `CC1(C)OC(=O)Nc2ccc(/C(=C/C#N)c3ccccc3)cc21` yielded a melting point of 205 to 206 °C.
The molecule `COC(=O)c1ccc(Cl)c(CN2CCSC2=NC#N)c1Cl` returned a melting point of 158 °C.
On to `Oc1ccccc1-n1cccc1`, for which the melting point lay within 52 to 54 °C.
Consider `C1=C(CCCN2CCCCC2)c2ccccc2C12CCCCC2`, for which the melting point was in the range of 146 to 148 °C.
In turn, `Cc1cc(SC(C)c2ccc3cn(-c4ccc(C(F)(F)F)cc4)nc3c2)ccc1OC(C)(C)C(=O)O` (racemic) yielded a melting point of 114 to 116 °C.
The molecule `COc1cc(N2CCN(c3c(C)c(C)c4c(c3C)CC(C)(C)O4)CC2)ccc1Cl` yielded a melting point of 168 to 171 °C.
For `Cc1ccnc(F)c1N` the value was 63 to 64 °C.
Turning to `CCOC(=O)C1=NN=C(c2ccc(OC)c(OC)c2)c2cc(OC)c(OC)cc2C1CC` (stereo not given), the melting point lay in the range of 178 to 180 °C.
With `Cn1cnc(C(N)=O)c1NC(=S)NC(=O)c1ccccc1`, the melting point was 194 to 196 °C.
With `C=CCn1c(NCC)nc(N2CCc3ccccc3CC2)c(C#N)c1=O`, the melting point lay within 172 to 177 °C.
As for `O=c1[nH]c2cc([N+](=O)[O-])c(Sc3cccc4cnccc34)cc2o1`, the melting point lay within 255 to 260 °C.
For `COc1ccc(CCC(=O)c2ccc(O)cc2)c(OC)c1`, the melting point fell in the range of 126 to 127 °C.
In turn, `CC(=O)c1ccc(NS(C)(=O)=O)c(Oc2ccc(F)cc2)c1` displayed a melting point of 95 to 96 °C.
As to `CC(CC(=O)O)Oc1ccc(Oc2ccccc2)c(NS(C)(=O)=O)c1` (stereo not given), the melting point was 121 to 124 °C.
Take `CCC1(CC)c2cc(-c3nc4ccccc4s3)ccc2-c2ccc(N(c3ccc(Oc4ccc([N+](=O)[O-])cc4)cc3)c3ccc(Oc4ccc([N+](=O)[O-])cc4)cc3)cc21`: the melting point was in the range of 223 to 225 °C.
`Nc1cc2c(cc1Oc1ccccc1)C(=O)OC2` yielded a melting point of 205 to 206 °C.
The value for `O=C(OC1CCCCC1)c1ncn2c1[C@@H]1CCN1C(=O)c1c(Br)cccc1-2` was 203 to 204 °C; that for `CC(=NNC(=O)c1ccc(C(F)(F)F)cc1)c1ccncc1` was 198 °C; that for `Cc1ccc(OCCO)cn1` was 49 to 51 °C.
`CC1=CCC2C(=O)OC(=O)C2C1` (stereo not given) showed a melting point of 58 to 63 °C.
Consider `C[C@@H](n1cc(-c2ccccc2)nn1)[C@](O)(Cn1cncn1)c1ccc(F)cc1F`, for which the melting point lay within 148 to 149 °C.
`O=C1CC(CO)C(c2ccc(N3CCOCC3)c(Cl)c2)=NN1` (stereo not given) had a melting point of 173 to 175 °C.
For `CC/C(=C\c1ccc(OCCOC)cc1Oc1ncc(Cl)cc1Cl)C(=O)O` the value was 139 to 140 °C; for `O=C(NNS(=O)(=O)c1ccccc1)c1cnc2ccccc2c1`, 249 to 250 °C; for `COCOc1cc(CBr)c2nc3cccc(OCOC)c3nc2c1`, 167 to 168 °C.
